Measured values from PubChem BioAssay (NCI).
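In this assay, cells in 96-well plates receive the compound at five concentrations for 48 hours. Endpoints are linearly interpolated between the surrounding concentrations. TGI marks complete inhibition of growth.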

Experiments:
Test in all cases: NCI anticancer screen, dose series, 48 h
COLO 205 colon = tested on: COLO 205 colon
EKVX NSCLC = tested on: EKVX NSCLC
IGROV1 ovarian = tested on: IGROV1 ovarian
LOX IMVI melanoma = tested on: LOX IMVI melanoma
MOLT-4 leukemia = tested on: MOLT-4 leukemia
NCI-H226 lung = tested on: NCI-H226 lung
NCI-H23 lung = tested on: NCI-H23 lung
NCI-H460 lung = tested on: NCI-H460 lung
OVCAR-3 ovarian = tested on: OVCAR-3 ovarian
OVCAR-4 ovarian = tested on: OVCAR-4 ovarian
RPMI-8226 leukemia = tested on: RPMI-8226 leukemia
RXF 393 renal = tested on: RXF 393 renal
SK-MEL-28 melanoma = tested on: SK-MEL-28 melanoma
SK-MEL-5 melanoma = tested on: SK-MEL-5 melanoma
SR leukemia = tested on: SR leukemia
T-47D breast = tested on: T-47D breast
UACC-257 melanoma = tested on: UACC-257 melanoma
UACC-62 melanoma = tested on: UACC-62 melanoma
M14 melanoma = tested on: M14 melanoma

Row | Compound | TGI (COLO 205 colon) [µM] | TGI (EKVX NSCLC) [µM] | TGI (IGROV1 ovarian) [µM] | TGI (LOX IMVI melanoma) [µM] | TGI (MOLT-4 leukemia) [µM] | TGI (NCI-H226 lung) [µM] | TGI (NCI-H23 lung) [µM] | TGI (NCI-H460 lung) [µM] | TGI (OVCAR-3 ovarian) [µM] | TGI (OVCAR-4 ovarian) [µM] | TGI (RPMI-8226 leukemia) [µM] | TGI (RXF 393 renal) [µM] | TGI (SK-MEL-28 melanoma) [µM] | TGI (SK-MEL-5 melanoma) [µM] | TGI (SR leukemia) [µM] | TGI (T-47D breast) [µM] | TGI (UACC-257 melanoma) [µM] | TGI (UACC-62 melanoma) [µM] | TGI (M14 melanoma) [µM]
1 | CCOC(=O)N/N=C(\CC)NO | > 100 | > 100 | > 100 | > 100 | > 100 | > 100 | > 100 | > 100 | > 100 | > 100 | > 100 | > 100 | > 100 | > 100 | > 100 | > 100 | > 100 | > 100 | –
2 | CCOC(=O)CC(=O)Nc1cccc2sc3ncccc3c(=O)c12 | > 100 | > 100 | – | > 100 | > 100 | > 100 | > 100 | > 100 | > 100 | > 100 | > 100 | 35.8 | > 100 | 40.5 | > 100 | > 100 | > 100 | > 100 | > 100
3 | COc1ccc(/C=C2\Sc3nnc(-c4ccccc4)n3N=C2c2cc(F)c(Cl)cc2Cl)cc1OC | – | > 100 | > 100 | > 100 | 68.9 | > 100 | > 100 | > 100 | > 100 | > 100 | > 100 | 54.4 | > 100 | > 100 | > 100 | > 100 | > 100 | – | > 100
4 | Clc1ccc(C(Cc2ccccc2)c2c(Cl)nc(N3CCNCC3)nc2Cl)cc1 (stereo unspecified) | 3.11 | 32.2 | 24.2 | 10.6 | 15.9 | 40.7 | 36.8 | 30.2 | 28.2 | 43 | 33.7 | – | 26.6 | 27.8 | 3.71 | 29.6 | 34 | 44 | 29.7
5 | CC[C@@H]([C@H](O)c1ccccc1Cl)[N+](=O)[O-] | > 100 | > 100 | > 100 | > 100 | – | > 100 | > 100 | > 100 | > 100 | > 100 | > 100 | > 100 | > 100 | > 100 | > 100 | > 100 | > 100 | > 100 | > 100
6 | O=c1oc2ccccc2c(O)c1C(c1cccc(C(c2c(O)c3ccccc3oc2=O)c2c(O)c3ccccc3oc2=O)c1)c1c(O)c2ccccc2oc1=O | > 100 | > 100 | > 100 | 60.2 | 63.3 | > 100 | > 100 | > 100 | > 100 | – | 76.6 | > 100 | > 100 | 95.7 | 58.8 | > 100 | > 100 | 95.7 | > 100
7 | CN(C)CCNC(=O)c1cccc2c1Oc1cccc([N+](=O)[O-])c1O2 | 36 | – | 34.1 | – | 27.1 | 27.9 | 72.8 | 35.4 | 49.7 | – | – | – | 38.9 | 33.2 | 76.1 | 27.9 | 35.5 | 33 | 30
8 | CC(C)OC(=O)C1(C(C)C)CCc2ccc(C(=O)CCC(=O)O)cc21 (stereo unspecified) | > 100 | > 100 | > 100 | > 100 | > 100 | > 100 | > 100 | > 100 | – | > 100 | > 100 | > 100 | > 100 | > 100 | > 100 | > 100 | > 100 | > 100 | > 100
9 | COc1ccc(C(OCC2OC3(COC(c4ccccc4)(c4ccc(OC)cc4)c4ccc(OC)cc4)C(Oc4nc(=O)ccn43)C2O)(c2ccccc2)c2ccc(OC)cc2)cc1 (stereo unspecified) | > 100 | > 100 | > 100 | > 100 | > 100 | > 100 | > 100 | – | > 100 | > 100 | > 100 | > 100 | > 100 | > 100 | > 100 | > 100 | > 100 | > 100 | > 100
10 | C=CCSC1=N/C(=C\c2ccc(OC)cc2)C(=O)N1CC=C | 40.2 | 59.2 | > 100 | > 100 | 37.1 | – | > 100 | > 100 | > 100 | > 100 | 42 | 50.1 | > 100 | 29 | 43.7 | > 100 | 58.4 | > 100 | > 100
11 | CNn1c(-c2ccc(C)cc2)n[nH]c1=O | > 100 | > 100 | > 100 | > 100 | > 100 | > 100 | > 100 | > 100 | > 100 | > 100 | > 100 | > 100 | – | > 100 | > 100 | > 100 | > 100 | > 100 | > 100
12 | CC(C)(C)C1=CC(=C2C=Cc3cc(O)ccc3O2)C=C(C(C)(C)C)C1=O | 3.25 | 3.5 | 3.04 | 3.03 | – | 3.43 | 3.58 | 2.7 | 2.72 | 3.04 | 4.21 | 3.16 | 3.64 | 2.94 | 3.86 | 2.16 | 3.07 | 2.76 | 3.29
13 | CSc1ncc2c(C#N)c3[nH]c4ccccc4n3c(=O)c2n1 | 35.1 | > 100 | > 100 | > 100 | 24.6 | > 100 | > 100 | 87.8 | 45.2 | > 100 | 12.3 | 95.5 | – | 25.2 | 34.5 | > 100 | > 100 | 21.2 | > 100
14 | CC(=O)NC1CC(C(C)(C)NC(C)=O)CC=C1C (stereo unspecified) | > 100 | > 100 | > 100 | > 100 | > 100 | – | > 100 | > 100 | > 100 | > 100 | – | – | > 100 | > 100 | > 100 | > 100 | > 100 | > 100 | > 100
15 | COc1ccc(C2Oc3c(cccc3-c3c(-c4ccc(O)cc4)oc4cc(O)cc(O)c4c3=O)C(=O)C2O)cc1O (stereo unspecified) | > 100 | > 100 | > 100 | – | > 100 | > 100 | > 100 | > 100 | > 100 | > 100 | > 100 | – | > 100 | > 100 | > 100 | > 100 | > 100 | > 100 | > 100
16 | O=C1C=C(NCC(c2ccccc2)c2ccccc2)C(=O)c2ncccc21 | 24.4 | 7.83 | 8.82 | 5.23 | 6.91 | 9.71 | 5.76 | 1.92 | 3.32 | 7.29 | 5.84 | – | 10 | 1.62 | 4.87 | 13.4 | 2.45 | 2.9 | 3.25
17 | C[C@H](c1ccccc1)n1c(N)c(-c2nc3ccccc3s2)c2ccc([N+](=O)[O-])cc2c1=O | 36.4 | > 100 | 98.9 | > 66.6 | 19.9 | > 63.1 | 6.66 | > 61.5 | > 100 | > 100 | 1.87 | – | > 100 | 19.8 | 13 | 17.6 | 76.9 | > 100 | > 100
18 | Cc1ccc(C)n2c1nc1cc3ccccc3cc12 | > 100 | > 100 | > 100 | – | 95.1 | > 100 | > 100 | – | > 100 | – | > 100 | > 100 | > 100 | 93 | > 100 | > 100 | > 100 | 57.1 | > 100
19 | O=[N+]([O-])c1cccc(-c2cn3c(n2)Cc2ccccc2C3)c1 | > 100 | > 100 | > 100 | > 100 | > 100 | > 100 | > 100 | > 100 | – | > 100 | – | > 100 | > 100 | > 100 | > 100 | > 100 | > 100 | > 100 | > 100
20 | COc1ccc(C[C@@H](C(=O)O[C@H](C)[C@H](NC(=O)[C@@H](CC(C)C)N(C)C(=O)C2CCCN2C(=O)[C@H](C)O)C(=O)N2CCCCNC(=O)[C@@H](C)C(=O)[C@H](C(C)C)OC(=O)C[C@H](O)[C@H]2CC(C)C)N(C)C(C)=O)cc1 (stereo partly specified) | 14.8 | 37.1 | > 50 | – | 35.2 | 49.5 | 42.5 | 45.2 | > 50 | > 50 | 26.8 | 20.6 | 22.6 | 34.1 | 25 | > 50 | > 50 | 22 | > 50
21 | C[C@@H](NC(=O)Cn1c(Cl)nc2ccccc21)c1ccccc1 | > 100 | > 100 | – | > 100 | > 100 | > 100 | > 100 | > 100 | > 100 | > 100 | > 100 | > 100 | > 100 | > 100 | > 100 | > 100 | > 100 | > 100 | > 100
22 | O=C(O/N=c1/ccc(=O)/c(=N\OC(=O)c2ccccc2)c1=O)c1ccccc1 | > 100 | > 100 | > 100 | > 100 | > 100 | > 100 | > 100 | > 100 | > 100 | > 100 | > 100 | > 100 | > 100 | > 100 | > 100 | > 100 | – | – | > 100
23 | COc1ccc2cc(CN3CCC(C4CCN(Cc5ccc6cc(OC)ccc6c5)CC4)CC3)ccc2c1 | 2.98 | 29.8 | 21.6 | 5.66 | 5.11 | 38.3 | 35.9 | 5.04 | 9.74 | 18.2 | 4.19 | 11.8 | 4.75 | 3.12 | 3.6 | 4.45 | 3.88 | 3.74 | –
24 | COC(=O)[C@]12C3=C(O)C(=O)C[C@H]1OC[C@H]2C=CC3 | > 100 | > 100 | > 100 | > 100 | – | – | > 100 | > 100 | > 100 | > 100 | > 100 | > 100 | > 100 | > 100 | > 100 | > 100 | > 100 | > 100 | > 100
25 | Cc1ccc2c(n1)NC(=O)C(Cc1ccccc1)(N=[N+]=[N-])C2=O (stereo unspecified) | > 100 | – | > 100 | – | > 100 | > 100 | > 100 | > 100 | > 100 | > 100 | – | > 100 | > 100 | – | > 100 | > 100 | > 100 | > 100 | > 100
26 | CC(Cc1ccccc1)N(C)Cc1nc(C2CCC([N+](=O)[O-])O2)no1 (stereo unspecified) | 12.9 | 94.4 | 25.5 | 11.6 | > 100 | 32.4 | 19.4 | – | – | 21.3 | 72.8 | 37.6 | 25.6 | 24.3 | > 100 | 66.1 | 21.2 | 22.1 | 19.1
